Test results reported in US20140323519A1, “HETEROCYCLIC COMPOUNDS AS B-RAF INHIBITORS FOR TREATMENT OF CANCER” (MERCK SHARP & DOHME CORP., priority 2011, published 2014).

Target: T1, B-Raf kinase (Homo sapiens, UniProt P15056)
T1 construct: purchased Upstate 14-530
Assay: B-Raf kinase assay (IMAP fluorescence polarisation, B-raf/MEK1/ERK2 cascade)
Format: biochemical
Details: B-raf 0.2 U/mL, 50 μM ATP, 60 min pre-incubation, FP readout
Experimental: Other assays are known in the literature and could be readily performed by those of skill in the art.
9) B-raf, active enzyme (for example #14-530, Upstate)
13) Fluorescein labeled substrate peptide (“ERK-tide”; IPTTPITTTYFFFK-5FAM-COOH), (for example #R7292/#R7293, Molecular Devices)
Prepare fresh Kinase Reaction buffer (KR-buffer) just before use: 50 mL Reaction buffer+50 μl 1 M DTT (1 mM final concentration). Serial dilutions of test compounds are made in 100% DMSO. For example a 10 points half log serial dilution from 1 mM to 31.6 nM leading to a final compound concentration range in the assay from 10 μM to 0.316 nM can be used.
1) Add 2.5 μL/well test compound in KR-buffer (this solution contains 8% DMSO) or (in minimum, maximum and background wells) 2.5 μL/well KR-buffer containing 8% DMSO. (Final DMSO concentration in the assay is 1%).
2) Add 5 μL/well 0.8 U/mL B-raf enzyme diluted in KR-buffer (final B-raf enzyme concentration in the assay is 0.2 U/mL) to all wells.
3) Pre-incubate 60 minutes at room temperature in the dark.
4) Add 5 μL/well 256 ng/mL MEK1 enzyme diluted in KR-buffer (final MEK1 enzyme concentration in the assay is 64 ng/mL) to all wells.
5) Add 5 μL/well 2.4 μg/mL Erk2 enzyme with 200 nM Fl-peptide substrate diluted in KR-buffer (final concentration in the assay of Erk2 enzyme is 600 ng/mL and of Fl-peptide substrate is 50 nM) to all wells except the background wells. Add here 5 μL/well 2.4 μg/mL Erk2 enzyme without 200 nM Fl-peptide substrate.
6) Add 2.5 μL/well 400 μM ATP to minimum and compound wells (50× dilution of the mM stock in KR-buffer, final ATP concentration in the assay is 50 μM) or (in maximum wells) 2.5 μl/well KR-buffer.
7) Incubate 60 minutes at 30° C. in the dark.
8) Add 20 μL/well IMAP Progressive Binding Solution (IMAP Progressive Binding Solution: 75% 1× buffer A and 25% 1× buffer B with 1:900 dilution of Progressive Binding Reagent, all kit contents) to all wells.
9) Incubate 60 minutes at room temperature in the dark.
10) Read the FP signal on Envision multi-label reader.
On every 384-well assay plate, 16-18 wells are used as minimum wells (wells without inhibitor, 0% effect), 16-18 wells are used as maximum wells (wells without ATP, 100% effect). 16 wells are used for measuring the background signal (everything but not substrate). For all assay plates duplicates are prepared.
Run as two independent experiments (N=2) on duplicate plates (n=2).
IC50 Determinations: mP values of compound test wells are converted to percent effect based on 0% effect and 100% effect controls. Dose-response curves were generated from percent effect data plotted against test compound concentration, each in duplicate, from 10 point serial dilutions of inhibitory compounds. To generate IC50 values, the dose-response curves were fitted to a standard sigmoidal curve and IC50 values were derived by nonlinear regression analysis.

T1 sequence (P15056 416-766 limits assumed): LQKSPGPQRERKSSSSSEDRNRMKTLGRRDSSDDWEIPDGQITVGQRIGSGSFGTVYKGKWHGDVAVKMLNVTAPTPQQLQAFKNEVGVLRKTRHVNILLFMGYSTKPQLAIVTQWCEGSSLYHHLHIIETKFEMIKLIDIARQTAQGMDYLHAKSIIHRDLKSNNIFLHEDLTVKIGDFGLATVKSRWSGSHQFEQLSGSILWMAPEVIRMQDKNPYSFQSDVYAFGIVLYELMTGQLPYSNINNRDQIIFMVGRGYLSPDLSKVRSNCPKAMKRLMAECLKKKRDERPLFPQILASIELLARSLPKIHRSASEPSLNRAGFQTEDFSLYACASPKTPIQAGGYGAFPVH

Compound	IC50 [nM]
COc1ccc2c(c1)C(=O)N(c1cc(NC(=O)c3cccc(C(C)(C)C#N)c3)ccc1C)C2 [Compound 1-1, 3-(2-cyanopropan-2-yl)-N-(3-(6-methoxy-1-oxoisoindolin-2-yl)-4-methylphenyl)benzamide]	50 to 100
COc1ccc2c(c1)n(-c1cc(NC(=O)c3cccc(C(C)(C)C#N)c3)ccc1C)c(=O)n2C [Compound 1-9, 3-(Cyano-dimethyl-methyl)-N-[3-(6-methoxy-3-methyl-2-oxo-2,3-dihydro-benzoimidazol-1-yl)-4-methyl-phenyl]-benzamide]	> 100
Cc1ccc(NC(=O)c2cccc(C(C)(C)C#N)c2)cc1N1CC(c2ccccc2)OC1=O (stereo not drawn) [Compound 1-7, 3-(Cyano-dimethyl-methyl)-N-[4-methyl-3-(2-oxo-5-phenyl-oxazolidin-3-yl)-phenyl]-benzamide]	50 to 100
Cc1ccc(NC(=O)c2cccc(C(C)(C)C#N)c2)cc1-n1c(=O)n(C)c2ccccc21 [Compound 1-6, 3-(2-cyanopropan-2-yl)-N-(4-methyl-3-(3-methyl-2-oxo-2,3-dihydro-1H-benzo[d]imidazol-1-yl)phenyl)benzamide]	50 to 100
Cc1ccc(NC(=O)c2cccc(C(C)(C)C#N)c2)cc1N1CCN(c2ccccc2)C1=O [Compound 1-8, 3-(Cyano-dimethyl-methyl)-N-[4-methyl-3-(2-oxo-3-phenyl-imidazolidin-1-yl)-phenyl]-benzamide]	> 100
Cc1ccc(NC(=O)c2cccc(C(C)(C)C#N)c2)cc1N1CC(c2ccccc2)CC1=O (stereo not drawn) [Compound 1-5, 3-(Cyano-dimethyl-methyl)-N-[4-methyl-3-(2-oxo-4-phenyl-pyrrolidin-1-yl)-phenyl]-benzamide]	50 to 100
